In ChEMBL document CHEMBL4477225, “Development of a cell viability assay to assess drug metabolite structure-toxicity relationships” (Bioorg Med Chem Lett, 2016):

How the values were obtained:
Conditions in all cases: recombinant enzyme
[1] = molecular target: Cytochrome P450 2D6 (Homo sapiens, UniProt P10635); assay: (§1) Drug activation in human Hep3B cells assessed as human CYP2D6-mediated drug metabolism-induced cytotoxicity measured as decrease in cell viability at 300 uM pre-incubated with BSO for 18 hrs followed by incubation with compound for 3 hrs in presence of NADPH measured after 24 hrs in absence of compound, CYP3A4 and NADPH by cell titer-glo luminescence assay relative to BSO alone
[2] = molecular target: Cytochrome P450 3A4 (Homo sapiens, UniProt P08684); assay: as §1, with “CYP3A4-mediated” for “CYP2D6-mediated”
[3] = molecular target: Cytochrome P450 2C9 (Homo sapiens, UniProt P11712); assay: as §1, with “CYP2C9-mediated” for “CYP2D6-mediated”
Chain of Cytochrome P450 2C9 (P11712 whole entry): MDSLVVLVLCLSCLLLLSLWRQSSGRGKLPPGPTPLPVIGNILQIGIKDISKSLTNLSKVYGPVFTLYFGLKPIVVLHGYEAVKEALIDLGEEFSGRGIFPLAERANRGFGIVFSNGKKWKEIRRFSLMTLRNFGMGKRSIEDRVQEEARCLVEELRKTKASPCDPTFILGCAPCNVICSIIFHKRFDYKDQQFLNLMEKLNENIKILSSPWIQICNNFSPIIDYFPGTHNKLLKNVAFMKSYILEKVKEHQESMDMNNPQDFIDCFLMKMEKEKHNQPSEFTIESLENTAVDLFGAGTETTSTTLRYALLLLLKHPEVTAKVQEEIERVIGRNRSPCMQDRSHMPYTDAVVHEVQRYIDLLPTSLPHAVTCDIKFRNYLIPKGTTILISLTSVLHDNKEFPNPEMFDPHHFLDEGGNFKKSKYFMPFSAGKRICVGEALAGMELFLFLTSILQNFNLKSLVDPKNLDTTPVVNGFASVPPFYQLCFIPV

Chain of Cytochrome P450 2D6 (P10635 whole entry): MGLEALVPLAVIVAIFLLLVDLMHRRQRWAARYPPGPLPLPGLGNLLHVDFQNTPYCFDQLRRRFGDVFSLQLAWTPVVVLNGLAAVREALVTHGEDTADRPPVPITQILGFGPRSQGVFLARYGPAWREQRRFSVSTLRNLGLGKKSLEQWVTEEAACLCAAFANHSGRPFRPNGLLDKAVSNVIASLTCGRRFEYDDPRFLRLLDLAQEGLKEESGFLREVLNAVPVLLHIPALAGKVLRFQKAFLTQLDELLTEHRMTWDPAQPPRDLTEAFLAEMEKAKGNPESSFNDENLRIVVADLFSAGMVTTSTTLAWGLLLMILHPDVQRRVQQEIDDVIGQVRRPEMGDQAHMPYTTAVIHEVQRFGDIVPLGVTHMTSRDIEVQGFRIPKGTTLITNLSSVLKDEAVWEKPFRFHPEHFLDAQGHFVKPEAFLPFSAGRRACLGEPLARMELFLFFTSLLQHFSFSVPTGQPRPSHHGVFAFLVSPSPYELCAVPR
Chain of Cytochrome P450 3A4 (P08684 whole entry): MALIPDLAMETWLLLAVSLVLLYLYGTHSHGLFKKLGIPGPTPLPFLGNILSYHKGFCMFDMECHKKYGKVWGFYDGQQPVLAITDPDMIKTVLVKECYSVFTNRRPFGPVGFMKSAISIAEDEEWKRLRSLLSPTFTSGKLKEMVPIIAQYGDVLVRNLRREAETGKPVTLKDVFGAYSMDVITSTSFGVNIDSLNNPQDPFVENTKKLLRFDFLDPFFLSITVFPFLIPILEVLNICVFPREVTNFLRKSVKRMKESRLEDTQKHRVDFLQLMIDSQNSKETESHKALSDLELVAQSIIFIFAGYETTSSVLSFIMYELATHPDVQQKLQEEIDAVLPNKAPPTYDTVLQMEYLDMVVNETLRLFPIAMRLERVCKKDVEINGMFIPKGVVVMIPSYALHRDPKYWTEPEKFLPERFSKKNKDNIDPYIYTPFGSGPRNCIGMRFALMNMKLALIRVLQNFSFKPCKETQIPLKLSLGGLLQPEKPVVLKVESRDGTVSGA

Row | Structure (SMILES) | FC [1] | FC [2] | FC [3]
1 | CC(C(=O)O)c1ccc2oc(-c3ccc(Cl)cc3)nc2c1 (centres undefined) [BENOXAPROFEN] | 1 | 1 | 1
2 | CCc1ccc(CCOc2ccc(CC3SC(=O)NC3=O)cc2)nc1 (centres undefined) [PIOGLITAZONE] | 1 | 1 | 1
3 | CS(=O)(=O)Nc1ccc([N+](=O)[O-])cc1Oc1ccccc1 [NIMESULIDE] |  |  | 1
4 | Nc1nc(O)c2ncn(COC(CO)CO)c2n1 [GANCICLOVIR] | 1 | 1 | 1
5 | Nc1ccn([C@H]2CC[C@@H](CO)O2)c(=O)n1 [ZALCITABINE] | 1 | 1 | 1
6 | C[C@H](CS)C(=O)N1CCC[C@H]1C(=O)O [CAPTOPRIL] | 1 | 1 | 1
7 | Nc1c(CC(=O)O)cccc1C(=O)c1ccc(Br)cc1 [BROMFENAC] | 1 | 1 | 1
8 | O=C(CCCN1CCC(O)(c2ccc(Cl)cc2)CC1)c1ccc(F)cc1 [HALOPERIDOL] | 1 | 1 | 1
9 | CCCCNC(=O)NS(=O)(=O)c1ccc(C)cc1 [TOLBUTAMIDE] | 1 |  | 
10 | Cc1oncc1C(=O)Nc1ccc(C(F)(F)F)cc1 [LEFLUNOMIDE] | 1 | 1 | 
11 | NNC(=O)c1ccncc1 [ISONIAZID] | 1 | 1 | 1
12 | CC(=O)CC(c1ccccc1)c1c(O)c2ccccc2oc1=O (centres undefined) [WARFARIN] | 1 | 1 | 1
13 | C[C@@](Cc1ccc(O)c(O)c1)(NN)C(=O)O [CARBIDOPA ANHYDROUS] | 0.6 | 0.6 | 0.6
14 | CCC1(c2ccccc2)C(=O)NCNC1=O [PRIMIDONE] | 1 | 1 | 1
15 | NC(=O)N1c2ccccc2C=Cc2ccccc21 [CARBAMAZEPINE] | 1 | 1 | 1
16 | NC[C@H]1O[C@H](O[C@H]2[C@H](O)[C@@H](O[C@H]3O[C@H](CO)[C@@H](O)[C@H](N)[C@H]3O)[C@H](N)C[C@@H]2N)[C@H](O)[C@@H](O)[C@@H]1O [KANAMYCIN] | 1 | 1 | 1
17 | CS(=O)(=O)OCCCCOS(C)(=O)=O [BUSULFAN] | 1 | 1 | 1
18 | Nc1nc2ncc(CNc3ccc(C(=O)N[C@@H](CCC(=O)O)C(=O)O)cc3)nc2c(=O)[nH]1 [FOLIC ACID] | 0.6 | 0.6 | 0.6
19 | CC(=O)N(O)CCCCCNC(=O)CCC(=O)N(O)CCCCCNC(=O)CCC(=O)N(O)CCCCCN [DEFEROXAMINE] | 1 | 1 | 1
20 | Cc1cn([C@H]2C=C[C@@H](CO)O2)c(=O)[nH]c1=O [STAVUDINE] | 1 | 1 | 1
21 | CCCNC(=O)NS(=O)(=O)c1ccc(Cl)cc1 [CHLORPROPAMIDE] | 1 | 1 | 1

Row | Structure (SMILES) | FC [1] | FC [2] | FC [3]
22 | O=c1[nH]cnc2c1ncn2[C@H]1CC[C@@H](CO)O1 [DIDANOSINE] | 1 | 1 | 1
23 | NC(=O)c1ncn([C@@H]2O[C@H](CO)[C@@H](O)[C@H]2O)n1 [RIBAVIRIN] | 1 | 1 | 
24 | Nc1nc2nc[nH]c2c(=S)[nH]1 [THIOGUANINE] | 1 | 1 | 1
25 | CC(C)(C)NCC(O)c1ccc(O)c(CO)c1 (centres undefined) [ALBUTEROL] | 1 | 1 | 1
26 | Cc1cn([C@H]2C[C@H](N=[N+]=[N-])[C@@H](CO)O2)c(=O)[nH]c1=O [ZIDOVUDINE] | 1 | 1 | 1
27 | CCCC(CCC)C(=O)O [VALPROIC ACID] | 1 | 1 | 1
28 | Cc1cccc(C)c1OCC(C)N (centres undefined) [MEXILETINE] | 1 | 1 | 1
29 | Clc1cccc(Cl)c1N=C1NCCN1 [CLONIDINE] | 1 | 1 | 1
30 | COC(c1ccccc1)(c1ccccc1)[C@H](Oc1nc(C)cc(C)n1)C(=O)O [AMBRISENTAN] | 1 | 1 | 1
31 | Nc1nc2c(ncn2COCCO)c(=O)[nH]1 [ACYCLOVIR] | 1 | 1 | 1
32 | COCCc1ccc(OCC(O)CNC(C)C)cc1 (centres undefined) [METOPROLOL] | 1 | 1 | 1
33 | CCOc1ccccc1OCCN[C@H](C)Cc1ccc(OC)c(S(N)(=O)=O)c1 [TAMSULOSIN] |  | 1 | 1
34 | NC(=O)c1cnccn1 [PYRAZINAMIDE] | 1 | 1 | 1
35 | Sc1ncnc2nc[nH]c12 [MERCAPTOPURINE ANHYDROUS] | 1 | 1 | 
36 | CC(C)NCC(O)c1cc(O)cc(O)c1 (centres undefined) [METAPROTERENOL] | 1 | 1 | 1
37 | COC(=O)CCc1ccc(OCC(O)CNC(C)C)cc1 (centres undefined) [ESMOLOL] | 1 | 1 | 1
38 | Nc1ccc(C(=O)O)c(O)c1 [AMINOSALICYLIC ACID] | 1 | 1 | 1
39 | CN(C)/N=N/c1[nH]cnc1C(N)=O [DACARBAZINE] | 1 | 1 | 
40 | COc1ccccc1Oc1c(NS(=O)(=O)c2ccc(C(C)(C)C)cc2)nc(-c2ncccn2)nc1OCCO [BOSENTAN] | 1 | 1 | 1
41 | Nc1nc(NC2CC2)c2ncn([C@H]3C=C[C@@H](CO)C3)c2n1 [ABACAVIR] | 1 | 1 | 1
42 | O=C(O)COc1ccc(C(=O)c2cccs2)c(Cl)c1Cl | 1 | 1 | 1

Row | Structure (SMILES) | FC [1] | FC [2] | FC [3]
43 | CCCCCCCCCCC[C@@H](C[C@@H]1OC(=O)[C@H]1CCCCCC)OC(=O)[C@H](CC(C)C)NC=O [ORLISTAT] | 1 | 1 | 1
44 | CC(C(=O)O)c1ccc(-c2ccccc2)c(F)c1 (centres undefined) [FLURBIPROFEN] | 1 | 1 | 1
45 | O=C(O)CCCCCCNC1c2ccccc2CCc2ccccc21 [AMINEPTINE] | 1 | 1 | 1
46 | Oc1ncnc2[nH]ncc12 [ALLOPURINOL] | 1 | 1 | 1
47 | CCCCCCCCCCCCOS(=O)(=O)O.CC[C@H]1OC(=O)[C@H](C)[C@@H](O[C@H]2C[C@@](C)(OC)[C@@H](O)[C@H](C)O2)[C@H](C)[C@@H](O[C@@H]2O[C@H](C)C[C@H](N(C)C)[C@H]2O)[C@](C)(O)C[C@@H](C)C(=O)[C@H](C)[C@@H](O)[C@]1(C)O | 1 | 1 | 
48 | C[C@H]1O[C@@H](O[C@H]2[C@@H](O)C[C@H](O[C@H]3[C@@H](O)C[C@H](O[C@H]4CC[C@@]5(C)[C@H](CC[C@@H]6[C@@H]5C[C@@H](O)[C@]5(C)[C@@H](C7=CC(=O)OC7)CC[C@]65O)C4)O[C@@H]3C)O[C@@H]2C)C[C@H](O)[C@@H]1O [DIGOXIN] | 1 | 1 | 1
49 | CC[C@H](C)C(=O)O[C@H]1C[C@H](O)C=C2C=C[C@H](C)[C@H](CC[C@@H](O)C[C@@H](O)CC(=O)O)[C@H]21 [PRAVASTATIN] | 1 | 1 | 1
50 | O=P1(N(CCCl)CCCl)NCCCO1 (centres undefined) [CYCLOPHOSPHAMIDE ANHYDROUS] | 1 | 1 | 1
51 | CC[C@@H](CO)NCCN[C@@H](CC)CO [ETHAMBUTOL] | 1 | 1 | 1
52 | Cc1ccc(C(=O)c2cc(O)c(O)c([N+](=O)[O-])c2)cc1 [TOLCAPONE] | 1 | 1 | 1
53 | CN1Cc2c(N)cccc2C(c2ccccc2)C1 (centres undefined) [NOMIFENSINE] | 0.3 | 0.3 | 0.3
54 | CN(C)c1ccc(O)c2c1C[C@H]1C[C@H]3[C@H](N(C)C)C(O)=C(C(N)=O)C(=O)[C@@]3(O)C(O)=C1C2=O [MINOCYCLINE] | 1 | 1 | 1
55 | CN(Cc1cnc2nc(N)nc(N)c2n1)c1ccc(C(=O)N[C@@H](CCC(=O)O)C(=O)O)cc1 [METHOTREXATE] | 1 | 1 | 
56 | Nc1ccn([C@@H]2CS[C@H](CO)O2)c(=O)n1 [LAMIVUDINE] | 1 | 1 | 1
57 | [H]/N=C(/N)N[C@H]1[C@H](O)[C@@H](O)[C@H](O[C@@H]2O[C@@H](C)[C@](O)(C=O)[C@H]2O[C@@H]2O[C@@H](CO)[C@H](O)[C@@H](O)[C@@H]2NC)[C@@H](N/C(N)=N\[H])[C@@H]1O [STREPTOMYCIN] | 1 | 1 | 1
58 | Cc1ccnc2c1NC(=O)c1cccnc1N2C1CC1 [NEVIRAPINE] | 1 | 1 | 1
59 | CCc1cccc2c3c([nH]c12)C(CC)(CC(=O)O)OCC3 (centres undefined) [ETODOLAC] | 1 | 1 | 1
60 | CCOC(=O)C1=C[C@@H](OC(CC)CC)[C@H](NC(C)=O)[C@@H](N)C1 [OSELTAMIVIR] | 1 | 1 | 1
61 | CC(=O)Oc1ccccc1C(=O)O [ASPIRIN] | 1 | 1 | 1
62 | O=C(O)c1cccnc1 [NIACIN] | 1 | 1 | 
